Assay results as given in the supplement of paper PMC10933438, “Inhibition of urease-mediated ammonia production by 2-octynohydroxamic acid in hepatic encephalopathy” (Nature Communications, 2024).
± gives the standard deviation of the averaged measurements.

Experiments:
Assay in all cases: revertant-positive wells per 48 wells (Ames fluctuation test); higher = more mutagenic; extreme values may be limits of the assay
Conditions in all cases: exposure time: 90 min
[1] = tested on: Salmonella typhimurium TA100
Method: (§1)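 Ames MPF Penta 1 microplate fluctuation assay (Xenometrix): bacteria exposed to compound (in DMSO) for 90 min at 37 °C with or without rat liver S9 fraction, then 2-day selection in histidine/tryptophan-free pH-indicator medium in 384-well plates; read-out is the number of revertant (yellow) wells out of 48, triplicate; compound considered mutagenic at >=2-fold over negative (DMSO) control baseline. Zero wells at high doses reflect cytotoxicity.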

[2] = tested on: Salmonella typhimurium TA1537
Method: as §1

[3] = tested on: Salmonella typhimurium TA1535
Method: as §1

[4] = tested on: Salmonella typhimurium TA98
Method: as §1

[5] = 0.01 mM, S9 metabolic activation: with S9
[6] = 0.01 mM, S9 metabolic activation: without S9
[7] = 0.05 mM, S9 metabolic activation: with S9
[8] = 0.05 mM, S9 metabolic activation: without S9
[9] = 0.5 mM, S9 metabolic activation: with S9
[10] = 0.5 mM, S9 metabolic activation: without S9
[11] = 1 mM, S9 metabolic activation: with S9
[12] = 1 mM, S9 metabolic activation: without S9
[13] = 5 mM, S9 metabolic activation: with S9
[14] = 5 mM, S9 metabolic activation: without S9
[15] = 10 mM, S9 metabolic activation: with S9
[16] = 10 mM, S9 metabolic activation: without S9

Structure (SMILES): CCCCCC#CC(=O)NO [2-octynohydroxamic acid]
- revertant-positive wells per 48 wells [1, 5]: 9.33 ± 2.3
- revertant-positive wells per 48 wells [1, 6]: 3 ± 1.7
- revertant-positive wells per 48 wells [1, 7]: 6 ± 2
- revertant-positive wells per 48 wells [1, 8]: 3 ± 1
- revertant-positive wells per 48 wells [1, 9]: 0.333 ± 0.58
- revertant-positive wells per 48 wells [1, 10]: 1.33 ± 1.1
- revertant-positive wells per 48 wells [1, 11]: 0
- revertant-positive wells per 48 wells [1, 12]: 0
- revertant-positive wells per 48 wells [1, 13]: 0
- revertant-positive wells per 48 wells [1, 14]: 0
- revertant-positive wells per 48 wells [1, 15]: 0
- revertant-positive wells per 48 wells [1, 16]: 0
- revertant-positive wells per 48 wells [2, 5]: 0.333 ± 0.58
- revertant-positive wells per 48 wells [2, 6]: 1 ± 1
- revertant-positive wells per 48 wells [2, 7]: 1.33 ± 1.1
- revertant-positive wells per 48 wells [2, 8]: 0.333 ± 0.58
- revertant-positive wells per 48 wells [2, 9]: 0
- revertant-positive wells per 48 wells [2, 10]: 1.33 ± 1.5
- revertant-positive wells per 48 wells [2, 11]: 0
- revertant-positive wells per 48 wells [2, 12]: 3 ± 2.6
- revertant-positive wells per 48 wells [2, 13]: 0
- revertant-positive wells per 48 wells [2, 14]: 0
- revertant-positive wells per 48 wells [2, 15]: 0
- revertant-positive wells per 48 wells [2, 16]: 0
- revertant-positive wells per 48 wells [3, 5]: 0.333 ± 0.58
- revertant-positive wells per 48 wells [3, 6]: 1 ± 1
- revertant-positive wells per 48 wells [3, 7]: 2 ± 1.7
- revertant-positive wells per 48 wells [3, 8]: 1 ± 1
- revertant-positive wells per 48 wells [3, 9]: 0.667 ± 1.1
- revertant-positive wells per 48 wells [3, 10]: 1.67 ± 1.5
- revertant-positive wells per 48 wells [3, 11]: 1.33 ± 0.58
- revertant-positive wells per 48 wells [3, 12]: 0.667 ± 1.1
- revertant-positive wells per 48 wells [3, 13]: 0
- revertant-positive wells per 48 wells [3, 14]: 0
- revertant-positive wells per 48 wells [3, 15]: 0
- revertant-positive wells per 48 wells [3, 16]: 0
- revertant-positive wells per 48 wells [4, 5]: 0
- revertant-positive wells per 48 wells [4, 6]: 1.67 ± 1.5
- revertant-positive wells per 48 wells [4, 7]: 1 ± 1
- revertant-positive wells per 48 wells [4, 8]: 0.333 ± 0.58
- revertant-positive wells per 48 wells [4, 9]: 1 ± 1
- revertant-positive wells per 48 wells [4, 10]: 1.67 ± 1.5
- revertant-positive wells per 48 wells [4, 11]: 0.333 ± 0.58
- revertant-positive wells per 48 wells [4, 12]: 0
- revertant-positive wells per 48 wells [4, 13]: 0
- revertant-positive wells per 48 wells [4, 14]: 0
- revertant-positive wells per 48 wells [4, 15]: 0
- revertant-positive wells per 48 wells [4, 16]: 0

Structure (SMILES): CC(=O)NO [acetohydroxamic acid]
- revertant-positive wells per 48 wells [1, 6]: 3.67 ± 2.3
- revertant-positive wells per 48 wells [1, 7]: 7.33 ± 2.1
- revertant-positive wells per 48 wells [1, 8]: 4.33 ± 0.58
- revertant-positive wells per 48 wells [1, 9]: 7.33 ± 1.5
- revertant-positive wells per 48 wells [1, 11]: 10.3 ± 1.5
- revertant-positive wells per 48 wells [1, 12]: 5.67 ± 0.58
- revertant-positive wells per 48 wells [1, 13]: 15 ± 2
- revertant-positive wells per 48 wells [1, 14]: 13.3 ± 4.7
- revertant-positive wells per 48 wells [1, 15]: 18.7 ± 2.5
- revertant-positive wells per 48 wells [1, 16]: 17.3 ± 4

Structure (SMILES): CCCCCCCC(=O)NO [octanohydroxamic acid]
- revertant-positive wells per 48 wells [1, 5]: 3.67 ± 1.5
- revertant-positive wells per 48 wells [1, 6]: 5 ± 3.6
- revertant-positive wells per 48 wells [1, 7]: 6.33 ± 1.5
- revertant-positive wells per 48 wells [1, 8]: 7.67 ± 1.5
- revertant-positive wells per 48 wells [1, 10]: 6 ± 2.6
- revertant-positive wells per 48 wells [1, 12]: 8.67 ± 0.58
- revertant-positive wells per 48 wells [1, 13]: 5 ± 1.7
- revertant-positive wells per 48 wells [1, 14]: 0
- revertant-positive wells per 48 wells [1, 15]: 0
- revertant-positive wells per 48 wells [1, 16]: 0
- revertant-positive wells per 48 wells [2, 7]: 1
- revertant-positive wells per 48 wells [2, 9]: 0
- revertant-positive wells per 48 wells [2, 11]: 0
- revertant-positive wells per 48 wells [2, 13]: 0
- revertant-positive wells per 48 wells [2, 14]: 0
- revertant-positive wells per 48 wells [2, 15]: 0
- revertant-positive wells per 48 wells [2, 16]: 0
- revertant-positive wells per 48 wells [3, 6]: 1 ± 1
- revertant-positive wells per 48 wells [3, 7]: 2
- revertant-positive wells per 48 wells [3, 14]: 0
- revertant-positive wells per 48 wells [3, 15]: 0
- revertant-positive wells per 48 wells [3, 16]: 0
